Assay: Sigma receptor binding was determined by labeling with radioligand [3H](+)-pentazocine on frozen membranes obtained from frozen guinea pig brain

`Fc1ccc(C(OCCN2CCN(C/C=C/c3ccccc3)CC2)c2ccc(F)cc2)cc1` and `Fc1ccc(C(OCCN2CCN(C/C=C/c3cccnc3)CC2)c2ccc(F)cc2)cc1` [1-{2-[Bis-(4-fluoro-phenyl)-methoxy]-ethyl}-4-((E)-3-pyridin-3-yl-allyl)-piperazine] are within 1.5-fold of each other in IC50: 51 nM for the first, 59 nM for the second.

Going from `Fc1ccc(C(OCCN2CCN(CCCc3ccco3)CC2)c2ccc(F)cc2)cc1` [1-{2-[Bis-(4-fluoro-phenyl)-methoxy]-ethyl}-4-(3-furan-2-yl-propyl)-piperazine] to `Fc1ccc(C(OCCN2CCN(CCCc3cccs3)CC2)c2ccc(F)cc2)cc1` [1-{2-[Bis-(4-fluoro-phenyl)-methoxy]-ethyl}-4-(3-thiophen-2-yl-propyl)-piperazine], the IC50 falls from 62 nM to 38 nM (1.6-fold).

Going from `Fc1ccc(C(OCCN2CCN(CCCc3cccnc3)CC2)c2ccc(F)cc2)cc1` [1-{2-[Bis-(4-fluoro-phenyl)-methoxy]-ethyl}-4-(3-pyridin-3-yl-propyl)-piperazine] to `Fc1ccc(C(OCCN2CCN(C/C=C/c3ccco3)CC2)c2ccc(F)cc2)cc1` [1-{2-[Bis-(4-fluoro-phenyl)-methoxy]-ethyl}-4-((E)-3-furan-2-yl-allyl)-piperazine], the IC50 falls from 79 nM to 43 nM (1.8-fold). The second is the more potent here.

For `Fc1ccc(C(OCCN2CCN(C/C=C/c3cccs3)CC2)c2ccc(F)cc2)cc1` [1-{2-[Bis-(4-fluoro-phenyl)-methoxy]-ethyl}-4-((E)-3-thiophen-2-yl-allyl)-piperazine], the IC50 was 41 nM.

Reference: BindingDB's records for doi:10.1021/jm9606599 (National Institute of Diabetes and Digestive and Kidney …, 1997)
